# Assay results as given in patent US20200171056A1, “SULFONYLUREA COMPOUNDS IN THE TREATMENT OF DISEASE ASSOCIATED WITH UV-INDUCED DAMAGE” (CeMM - Forschungszentrum für Molekulare Medizin GmbH, priority 2017, published 2020).
# Key:
# Type in all cases: cell-based, human
# [1] = system: CPDs in genomic DNA of HAP1 cell lines; experiment: Dot blot for cyclobutane pyrimidine dimers; details: HAP1 WT and ΔXPA, 0.5 mM, 15 J/M^2 (FIG. 7C-D)
# Protocol: A. Dose-response curve of WT and ΔXPA cells treated with or without 0.5 mM acetohexamide for the indicated times, followed by UV irradiation. Survival was assessed after 3 days, using CellTiter-Glo. […] Error bars indicate SEM (n=3). B. Clonogenic survival of WT and ΔXPA cells treated with 0.5 mM acetohexamide for 6 hours or left untreated, then exposed to illudin S for 10 days, as indicated. C. WT and ΔXPA cells treated with or without 0.5 mM acetohexamide for the indicated times, followed by 15 J/M^2 irradiation and analyzed by dot blot for the presence of CPDs in genomic DNA. DNA was counterstained with methylene blue (MB) as a loading control. D. Quantification of the intensities of C.
# The amount of cyclobutane pyrimidine dimers (CPDs) in DNA was quantified using an immuno-dot blot assay with the CPD-specific monoclonal antibody TDM-2 (Cosmo Bio). Genomic DNA was extracted using QIAamp DNA mini kit (Qiagen), then the genomic DNA was denatured in TE buffer (10 mM Tris-CL and 1 mM EDTA, pH 7.5) by boiling for 5 minutes and subsequently 50 ng of genomic DNA was dot-blotted in triplicate onto a nitrocellulose membrane. The DNA was then fixed by baking the membrane for 2 hours at 80° C. […] Signals were detected using Amersham ECL (GE Healthcare Life Sciences DNA was counterstained with methylene blue as a loading control.
# [2] = system: DNA repair knockout HAP1 cell lines; experiment: Percentage of rescue in panel of 20 DNA repair-deficient cell lines after UV
# From the text: FIG. 3. Loss of MUTYH mimics acetohexamide function A. Bubble plot displaying the percentage of rescue, defined as the difference in survival of a given cell line treated with acetohexamide compared to untreated, following UV irradiation. The light grey, dark grey bubbles highlight ΔMUTYH, ΔXPA […], and black bubbles indicate the rest of the knockout cell lines and WT HAP1. The size of the bubbles indicates the significance as log10 (p-value). BER: base excision repair; NER: nucleotide excision repair; DSBR; double-strand break repair; MMR: mis-match repair; FA: Fanconi aneamia; DR; direct reversal; TLS; translesion synthesis. B. Survival of WT and MUTYH-deficient (ΔMUTYH) cells with or without 0.5 mM acetohexamide treatment, followed by UV irradiation, as assessed after 3 days using CellTitre-Glo. Loss of MUTYH protein was confirmed by immunoblotting using an anti-MUTYH antibody. ACTIN was used as a loading control. C. Deletion of MUTYH in WT HAP1 or an XPA-deficient background was confirmed by immunoblotting using an anti-MUTYH antibody. TUBULIN was used as a loading control. D. Clonogenic survival of WT, ΔXPA or ΔXPA-MUTYH cells irradiated with UV at the indicated doses or left untreated. Cells were fixed and stained 10 days later.
# Since acetohexamide enhanced the clearance of CPDs in NER-deficient cells, it was speculated that its mode-of-action could be via one the known DNA excision repair pathways. Thus, a panel of 20 DNA repair-deficient cell lines was prepared using CRISPR-Cas9, representing all DNA repair pathways. Pol kappa (POLK) was selected to represent translesion synthesis (TLS) polymerases since it has roles in the repair synthesis step of NER. Subsequently, these cell lines (as well as two wildtype controls) were treated with acetohexamide and exposed to UV irradiation (FIG. 3A). […]
# The DNA repair knockout cell lines were generated in collaboration with Horizon Genomics. […] Subsequently, the genomic DNA was isolated using Direct PCR-Cell Kit (PeqLab) and the region targeted by the gRNA was PCR amplified and analyzed by Sanger sequencing. […]
# ΔXPA-MUTYH HAP1 cells = experiment: Colony formation of double knockout after UV irradiation; details: 0.5 mM for 6 hours, 15 J/M^2 UV, 10 days (FIG. 4C)
# Protocol: A. WT HAP1 cells were treated with or without 0.5 mM acetohexamide for 6 hours, then released into compound-free media for the indicated time points and immunoblotted with an anti-MUTYH antibody. ACTIN was used as a loading control. B. WT HAP1 cells were either treated with 0.5 mM acetohexamide alone or with 10 μM of the proteasome inhibitor MG132 for 6 hours and analyzed by immunoblotting using an anti-MUTYH antibody. C. Left panel: colony formation of the WT, ΔXPA or ΔXPA-MUTYH HAP1 cells treated with or without 0.5 mM acetohexamide for 6 hours, followed by 15 J/M^2 UV irradiation and then kept in culture for 10 days. Right panel: Macroscopic colonies were stained with crystal violet and quantified. D. WT, ΔXPA or ΔXPA-MUTYH HAP1 cells were treated with 15 J/M^2 UV or left untreated, then kept in culture for the indicated recovery times and analyzed by dot blot for the presence of CPDs within genomic DNA. […] F. Survival of WT and ΔMULE HAP1 cells exposed to UV irradiation at different doses and assessed after 3 days, using CellTitre-Glo.
# Cells were treated with UV at different doses with or without drug pre-treatment and then seeded into 6-well plates, at a density of 1,000 cells/well, in duplicates for 2 weeks until visible colonies were formed. […] Next, the staining solution was removed and the wells were washed, imaged and quantified using CellProfiler.
compound,measurement,setting,value
CC(=O)c1ccc(S(=O)(=O)NC(=O)NC2CCCCC2)cc1 [acetohexamide],"clearance of CPDs, dot blot",[1],same observation was also made for HAP1 cell lines
same,"protective effect against UV-induced damage (percentage of rescue), knockout cell lines and wildtype",[2]; all knockout lines other than ΔMUTYH (FIG. 3A),comparable protective effect against UV-induced damage on all the knockout cell lines tested (and also to wildtype cells)
same,protective effect on NER-deficient cell lines,"[2]; knock out cell lines absent of XPA, XPC, ERCC8 (CSA), ERCC6 (CSB) or XPV (POLH)",general protective effect on NER-deficient cell lines
same,"protective effect against UV-induced damage (percentage of rescue), cells lacking MUTYH",[2]; ΔMUTYH (FIG. 3A),no effect on cells lacking MUTYH
same,survival of double knockout ΔXPA-MUTYH upon UV treatment,ΔXPA-MUTYH HAP1 cells,did not lead to a further increase in survival upon UV treatment
